Laboratory results as given in article PMC10457016 (Journal of fluorine chemistry, 2023).
Converted amounts (≈) assume the structure as drawn. Like-named read-outs stand apart in the source and are kept apart here.

Tests used:
human sEH = biological target: T1, human sEH (Homo sapiens, UniProt P34913); assay: Determination of inhibitory potency; type: biochemical
T1 sequence (P34913 1-555): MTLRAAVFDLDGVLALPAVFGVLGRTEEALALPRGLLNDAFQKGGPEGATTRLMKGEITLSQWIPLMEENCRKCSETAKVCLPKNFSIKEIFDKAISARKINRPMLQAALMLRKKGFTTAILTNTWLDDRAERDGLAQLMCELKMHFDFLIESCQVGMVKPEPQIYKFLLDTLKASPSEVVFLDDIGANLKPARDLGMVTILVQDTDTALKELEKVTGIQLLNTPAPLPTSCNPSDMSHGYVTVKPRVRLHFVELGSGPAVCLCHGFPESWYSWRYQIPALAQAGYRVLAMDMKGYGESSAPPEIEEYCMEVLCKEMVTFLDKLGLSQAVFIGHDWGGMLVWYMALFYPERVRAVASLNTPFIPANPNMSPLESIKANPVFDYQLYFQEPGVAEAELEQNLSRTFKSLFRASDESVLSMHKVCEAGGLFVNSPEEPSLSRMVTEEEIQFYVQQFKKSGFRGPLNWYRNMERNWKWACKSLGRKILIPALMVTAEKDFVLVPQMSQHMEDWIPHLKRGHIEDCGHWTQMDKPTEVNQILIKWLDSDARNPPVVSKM

[1] = Solubility in sodium phosphate buffer; type: physicochemical
[2] = kinetic fluorescent assay, substrate 5 μM, human sEH 1 nM, means of three separate experiments
[3] = sodium phosphate buffer (pH 7.4, 0.1 M) containing 1% of DMSO
[4] = sodium phosphate buffer, pH 7.4, aqueous buffer

Row | IC50 (human sEH; [2]) [nM] | Solubility [1, 3] [µM] | IC50 (human sEH) [nM] | Solubility [1, 4] [µM] | SMILES
1 | 10.2 | 440 to 450 |  |  | O=C(NCc1ccn(CCF)n1)NC12CC3CC(CC(C3)C1)C2 [3a, 1-Adamantyl-3-{[1-(2-fluoroethyl)-1H-pyrazol-3-yl]methyl}urea]
2 | 12 | 300 to 310 |  |  | O=C(NCc1ccn(CC(F)F)n1)NC12CC3CC(CC(C3)C1)C2 [3b, 1-Adamantyl-3-{[1-(2,2-difluoroethyl)-1H-pyrazol-3-yl]methyl}urea]
3 | 9.6 | 390 to 400 |  |  | O=C(NCc1ccn(CC(F)(F)F)n1)NC12CC3CC(CC(C3)C1)C2 [3c, 1-Adamantyl-3-{[1-(2,2,2-trifluoroethyl)-1H-pyrazol-3-yl]methyl}urea]
4 | 8.8 | 670 to 680 |  |  | O=C(NCc1ccn(C(F)F)n1)NC12CC3CC(CC(C3)C1)C2 [3d, 1-Adamantyl-3-[(1-difluoromethyl-1H-pyrazol-3-yl)methyl]urea]
5 | 9.9 | 160 to 170 |  |  | Cn1nc(CNC(=O)NC23CC4CC(CC(C4)C2)C3)cc1C(F)(F)F [3e, 1-Adamantyl-3-[(1-metyl-5-trifluoromethyl-1H-pyrazol-3-yl)methyl]urea]
6 | 0.8 | 250 to 260 |  |  | Cn1nc(CNC(=O)NC23CC4CC(CC(C4)C2)C3)c(Cl)c1Cl [3f, 1-Adamantyl-3-[(4,5-dichloro-1-methyl-1H-pyrazol-3-yl)methyl]urea]
7 |  |  | 13.8 | 650 to 660 (≈ 217 to 221 µg/mL) | O=C(NCc1ccn(CCF)n1)NCC12CC3CC(CC(C3)C1)C2 [4a, 1-[(Adamantan-1-yl)methyl]-3-{[1-(2-fluoroethyl)-1H-pyrazol-3-yl]methyl}urea]
8 |  |  | 27.5 | 270 to 280 (≈ 95.2 to 98.7 µg/mL) | O=C(NCc1ccn(CC(F)F)n1)NCC12CC3CC(CC(C3)C1)C2 [4b, 1-[(Adamantan-1-yl)methyl]-3-{[1-(2,2-difluoroethyl)-1H-pyrazol-3-yl]methyl}urea]
9 |  |  | 7.3 | 740 to 750 (≈ 274 to 278 µg/mL) | O=C(NCc1ccn(CC(F)(F)F)n1)NCC12CC3CC(CC(C3)C1)C2 [4c, 1-[(Adamantan-1-yl)methyl]-3-{[1-(2,2,2-trifluoroethyl)-1H-pyrazol-3-yl]methyl}urea]
10 |  |  | 15 | 570 to 580 (≈ 193 to 196 µg/mL) | O=C(NCc1ccn(C(F)F)n1)NCC12CC3CC(CC(C3)C1)C2 [4d, 1-[(Adamantan-1-yl)methyl]-3-[(1-difluoromethyl-1H-pyrazol-3-yl)methyl]urea]
11 | 22.5 | 160 to 170 |  |  | Cn1nc(CNC(=O)NCC23CC4CC(CC(C4)C2)C3)cc1C(F)(F)F [4e, 1-[(Adamantan-1-yl)methyl]-3-[(1-metyl-5-trifluoromethyl-1H-pyrazol-3-yl)methyl]urea]
12 |  |  | 1.2 | 120 to 130 (≈ 44.6 to 48.3 µg/mL) | Cn1nc(CNC(=O)NCC23CC4CC(CC(C4)C2)C3)c(Cl)c1Cl [4f, 1-[(Adamantan-1-yl)methyl]-3-[(4,5-dichloro-1-methyl-1H-pyrazol-3-yl)methyl]urea]
